Test results published in patent publication US8026359B2, “Fungicidal heterocyclic amines” (E.I. du Pont de Nemours and Company, priority 2007, dated 2011).

What was measured:
Assay type in all cases: in vivo
Plasmopara viticola = test: Test L: grape downy mildew, spray after inoculation of grape seedlings; details: 200 ppm; 100 = 100% disease control, 0 = no control relative to controls
Text: General protocol for preparing test suspensions for Tests A-R: The test compounds were first dissolved in acetone in an amount equal to 3% of the final volume and then suspended at the desired concentration (in ppm) in acetone and purified water (50/50 mix) containing 250 ppm of the surfactant Trem® 014 (polyhydric alcohol esters). The resulting test suspensions were then used in tests A-R. In Tests A-M, compounds were sprayed as a 200 ppm test suspension (equivalent to a rate of 500 g/ha) or as a 40 ppm test suspension to the point of runoff on the test plants. In Tests N-R, compounds were sprayed as a 100 g/ha test suspension (equivalent to a rate of 100 ppm) on the test plants at an application volume of 1000 L/ha. Grape seedlings were inoculated with a spore suspension of Plasmopara viticola (the causal agent of grape downy mildew) and incubated in a saturated atmosphere at 20° C. for 24 h. After a short drying period, the test suspension was sprayed to the point of run-off on the grape seedlings and then moved to a growth chamber at 20° C. for 6 days, after which time the test units were placed back into a saturated atmosphere at 20° C. for 24 h. Upon removal, disease ratings were made.

Botrytis cinerea = test: Test F: tomato Botrytis, preventive spray on tomato seedlings; details: 200 ppm, 100 = 100% disease control, 0 = no control relative to controls
Outline: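 Compounds dissolved in acetone (3% of final volume), suspended in 50/50 acetone/water with 250 ppm Trem® 014. Sprayed preventively to run-off on tomato seedlings at 200 ppm (500 g/ha) or 40 ppm.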

[1] = system: Erysiphe graminis f. sp. tritici; test: Test A: wheat powdery mildew, preventive spray on wheat seedlings; details: 200 ppm, 100 = 100% disease control, 0 = no control relative to controls
Outline: (§1)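 Compounds were dissolved in acetone (3% of final volume), then suspended in 50/50 acetone/purified water with 250 ppm Trem 014 surfactant. Plants were sprayed to run-off at 200 ppm (equivalent to 500 g/ha) or 40 ppm.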

Pythium aphanidermatum = test: Test M: bluegrass pythium blight, preventive spray on bluegrass seedlings; details: 200 ppm; 100 = 100% disease control, 0 = no control relative to controls
Text: (§2) General protocol for preparing test suspensions for Tests A-R: The test compounds were first dissolved in acetone in an amount equal to 3% of the final volume and then suspended at the desired concentration (in ppm) in acetone and purified water (50/50 mix) containing 250 ppm of the surfactant Trem® 014 (polyhydric alcohol esters). The resulting test suspensions were then used in tests A-R. In Tests A-M, compounds were sprayed as a 200 ppm test suspension (equivalent to a rate of 500 g/ha) or as a 40 ppm test suspension to the point of runoff on the test plants. In Tests N-R, compounds were sprayed as a 100 g/ha test suspension (equivalent to a rate of 100 ppm) on the test plants at an application volume of 1000 L/ha. The test suspension was sprayed to the point of run-off on bluegrass seedlings.

Fusarium graminearum = test: whole plant or invertebrate; details: for Test E disease control rating: 200 ppm, 100 = 100% disease control, 0 = no control relative to controls
Rhizoctonia oryzae = test: Test J: turf brown patch, preventive spray on creeping bent grass seedlings; details: 200 ppm; 100 = 100% disease control, 0 = no control relative to controls
Text: as §2, with “creeping bent grass” for “bluegrass”

[2] = system: Colletotrichum orbiculare; test: Test I: cucumber Colletotrichum anthracnose, preventive spray on cucumber seedlings; details: 100 = 100% disease control, 0 = no control relative to controls; for Test I disease control rating: 200 ppm
Outline: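 Compound was dissolved in acetone (3% of final volume), then suspended in 50/50 acetone/water with 250 ppm Trem 014 surfactant. Cucumber seedlings were sprayed to run-off as a preventive treatment at 200 ppm (equivalent to 500 g/ha) or 40 ppm.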

[3] = system: Puccinia recondita f. sp. tritici; test: Test B: wheat leaf rust, preventive spray on wheat seedlings; details: 200 ppm, 100 = 100% disease control, 0 = no control relative to controls
Outline: as §1

Phytophthora infestans = details: 200 ppm; 100 = 100% disease control, 0 = no control relative to controls
Septoria nodorum = test: Test C: wheat glume blotch, preventive spray on wheat seedlings; details: 200 ppm, 100 = 100% disease control, 0 = no control relative to controls
Outline: as §1

Septoria tritici = test: Test D: wheat leaf blotch, preventive spray on wheat seedlings; details: 200 ppm; 100 = 100% disease control, 0 = no control relative to controls
Outline: as §1

SMILES | Test L disease control rating (Plasmopara viticola) | Test F disease control rating (Botrytis cinerea) | Test A disease control rating [1] | Test M disease control rating (Pythium aphanidermatum) | Test E disease control rating (Fusarium graminearum) | Test J disease control rating (Rhizoctonia oryzae) | Test I disease control rating [2] | Test B disease control rating [3] | Test K disease control rating (Phytophthora infestans) | Test C disease control rating (Septoria nodorum) | Test D disease control rating (Septoria tritici) | pest or weed control at 200 ppm (Botrytis cinerea; Botrytis cinerea, 120 h, read-out: Test F disease control rating) | pest or weed control at 200 ppm ([1]; Blumeria graminis, 192 h, read-out: Test A disease control rating) | pest or weed control at 200 ppm (Fusarium graminearum; Fusarium graminearum, in Triticum aestivum, 192 h, read-out: Test E disease control rating) | pest or weed control at 200 ppm ([2]; Colletotrichum orbiculare, 144 h, read-out: Test I disease control rating) | pest or weed control at 200 ppm ([3]; Puccinia recondita, 192 h, read-out: Test B disease control rating) | pest or weed control at 200 ppm (Septoria nodorum; Parastagonospora nodorum, 216 h, read-out: Test C disease control rating)
CC(CO)Nc1nccc(-c2ccnc(Nc3cccc(F)c3)c2)n1 (stereo not drawn) [Compound 48] | 0% | 15% | 0% | 0% | 0% | 0% | 26% | 99% | 0% | 87% | – | – | – | – | – | – | –
COCC(C)Nc1nccc(-c2ccnc(Nc3c(F)cccc3F)c2)n1 (stereo not drawn) [Compound 49] | 0% | 90% | 86% | 0% | 81% | 0% | 67% | 99% | 0% | 92% | – | – | – | – | – | – | –
COCC(C)Nc1nccc(-c2ccnc(Nc3ccc(F)cc3)c2)n1 (stereo not drawn) [Compound 50] | 0% | 94% | 0% | 0% | 72% | 0% | 96% | 99% | 0% | 84% | – | – | – | – | – | – | –
COCC(C)Nc1nccc(-c2ccnc(Nc3cccc(C)c3)c2)n1 (stereo not drawn) [Compound 51] | 0% | 99% | 88% | 0% | 48% | 0% | 92% | 99% | 0% | 98% | – | – | – | – | – | – | –
Fc1ccc(F)c(Nc2cc(-c3ccnc(NC4CCOCC4)n3)ccn2)c1F [Compound 73] | – | 57% | 43% | 0% | 0% | – | 85% | 96% | 0% | 99% | 40% | – | – | – | – | – | –
COCC(C)Nc1cc(-c2ccnc(Nc3cccc(Cl)c3)n2)ncn1 (stereo not drawn) [Compound 105, N^2-(3-chlorophenyl)-N^6′-(2-methoxy-1-methylethyl) [4,4′-bipyrimidine]-2,6′-diamine] | 0% | – | – | 0% | – | 0% | – | – | 0% | – | – | 78% | 0% | 73% | 0% | 97% | 92%
COCC(C)Nc1cc(-c2ccnc(Nc3ccccc3)n2)ncn1 (stereo not drawn) [Compound 108] | 0% | 38% | 0% | 0% | 98% | 0% | 0% | 80% | 0% | 0% | – | – | – | – | – | – | –
